The values that follow come from patent US11339171B2, “MDM2 inhibitors” (Gan & Lee Pharmaceuticals, priority 2017, dated 2022).

The structures appear in SMILES notation.

The target of one experiment is T1, MDM2 (Homo sapiens, UniProt Q00987).
T1 construct: made in house
Kind of experiment: Inhibition test of MDM2-P53 (GST-MDM2, Biotin-P53, Anti-GST-Tb, SA-XL665). The note with it: for inhibitory effect on MDM2 compared with positive control compound HDM201: labels are Example numbers, the compounds with S-configuration are meant. The format is binding. In outline:
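Compounds, serially diluted 5-fold (twelve concentrations), were shaken for 90 min at 25° C with a mix of GST-MDM2 (4 nM final), Biotin-P53, anti-GST-Tb and SA-XL665. Buffer: 1×PBS, 0.1% BSA, 5 mM DTT, 1 mM AEBSF; signal read on a microplate reader.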

The subject of experiment [1] is human osteosarcoma cell line SJSA-1. Kind of experiment: Inhibition of proliferation of human osteosarcoma cell line SJSA-1 (DAPI staining, In Cell Analyzer). The note with it: for IC50: Homo sapiens, SJSA-1, 72 h, read-out: IC50 (nM), inhibitory activity on proliferation of human osteosarcoma cell line SJSA-1, SJSA-1, incubated 72 h; for inhibitory effect on human osteosarcoma cell line SJSA-1 compared with positive control compound HDM201: labels are Example numbers, the compounds with S-configuration are meant.

T1 sequence (Q00987 whole entry): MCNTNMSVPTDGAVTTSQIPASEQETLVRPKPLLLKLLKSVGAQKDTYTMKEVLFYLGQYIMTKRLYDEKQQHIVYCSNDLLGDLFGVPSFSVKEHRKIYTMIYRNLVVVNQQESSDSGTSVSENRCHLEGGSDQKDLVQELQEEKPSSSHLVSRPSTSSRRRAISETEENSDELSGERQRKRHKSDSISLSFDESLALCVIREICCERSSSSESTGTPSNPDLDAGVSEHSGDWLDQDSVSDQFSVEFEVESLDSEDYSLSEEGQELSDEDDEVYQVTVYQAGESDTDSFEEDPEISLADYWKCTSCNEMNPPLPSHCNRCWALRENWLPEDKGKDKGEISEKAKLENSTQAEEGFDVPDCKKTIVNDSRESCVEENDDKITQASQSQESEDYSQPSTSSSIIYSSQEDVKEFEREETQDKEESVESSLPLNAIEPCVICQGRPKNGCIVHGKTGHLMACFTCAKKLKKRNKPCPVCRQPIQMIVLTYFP

As to `COc1cc(C)ccc1-c1nc2c(n1C(C)C)[C@]1(C(=O)Nc3cc(Cl)ccc31)N(c1cc(Cl)ccc1C)C2=O` [Example R-24, (R)-6-chloro-5′-(5-chloro-2-methylphenyl)-3′-isopropyl-2′-(2-methoxy-4-methylphenyl)-3′H-spiro[dihydroindole-3,4′-pyrrolo[3,4-d]imidazole]-2,6′(5′H)-dione], the IC50 is 0.392 µM on MDM2 and 872 nM in experiment [1].
As for `COc1ccc(C(=O)O)cc1-c1nc2c(n1C(C)C)C1(C(=O)Nc3cc(Cl)ccc31)N(c1cc(Cl)ccc1C)C2=O` (stereo not shown) [Example 84, 3-(6-chloro-5′-(5-chloro-2-methylphenyl)-3′-isopropyl-2,6′-dioxo-5′,6′-dihydro-3′H-spiro[dihydroindole-3,4′-pyrrolo[3,4-d]imidazole]-2′-yl)-4-methoxybenzoic acid], the values for the IC50 (on MDM2; in experiment [1]) were 0.00378 µM and 2610 nM, respectively.
As for `CCOc1cc(OC)c(-c2nc3c(n2C(C)C)C2(C(=O)Nc4cc(Cl)ccc42)N(c2cccc(Cl)c2)C3=O)cn1` (stereo not shown) [Example 102, 6-chloro-5′-(3-chlorophenyl)-2′-(6-ethoxy-4-methoxypyridin-3-yl)-3′-isopropyl-3′H-spiro[dihydroindole-3,4′-pyrrolo[3,4-d]imidazole]-2,6′(5′H)-dione], at MDM2, the “inhibitory effect on MDM2 compared with positive control compound HDM201” value is recorded as “better”. Besides, the “inhibitory effect on human osteosarcoma cell line SJSA-1 compared with positive control compound HDM201” value in experiment [1] was “better”.
Take `COc1ccccc1-c1nc2c(n1C(C)C)[C@@]1(C(=O)Nc3cc(Cl)ccc31)N(c1cc(Cl)cn(C)c1=O)C2=O` [Example S-43, (S)-6-chloro-5′-(5-chloro-1-methyl-2-oxo-1,2-dihydropyridin-3-yl)-3′-isopropyl-2′-(2-methoxyphenyl)-3′H-spiro[dihydroindole-3,4′-pyrrolo[3,4-d]imidazole]-2,6′(5′H)-dione]: the figures for the IC50 (against MDM2; in experiment [1]) were 0.00328 µM and 564 nM, respectively.
For `COc1cc(OC)c(-c2nc3c(n2C(C)C)C2(C(=O)Nc4cc(Cl)ccc42)N(c2cc(Cl)ccc2C)C3=O)cn1` (stereo not shown) [Example 11, 6-chloro-5′-(5-chloro-2-methylphenyl)-2′-(4,6-dimethoxypyridin-3-yl)-3′-isopropyl-3′H-spiro[dihydroindole-3,4′-pyrrolo[3,4-d]imidazole]-2,6′(5′H)-dione], the “inhibitory effect on MDM2 compared with positive control compound HDM201” value against MDM2 is “better”. Moreover, the “inhibitory effect on human osteosarcoma cell line SJSA-1 compared with positive control compound HDM201” value in experiment [1] is on record as “better”.
As for `COc1ncc(-c2nc3c(n2C(C)C)[C@@]2(C(=O)Nc4cc(Cl)ccc42)N(c2ccc(C#N)c(Cl)c2)C3=O)c(OC)n1` [Example S-158, (S)-2-chloro-4-(6-chloro-2′-(2,4-dimethoxypyrimidin-5-yl)-3′-isopropyl-2,6′-dioxo-3′,6′-dihydro-5′H-spiro[dihydroindole-3,4′-pyrrolo[3,4-d]imidazole]-5′-yl)benzonitrile], the figures for the IC50 (at MDM2; in experiment [1]) were 0.00407 µM and 550 nM, respectively.
Turning to `COc1cc(OC(F)F)ncc1-c1nc2c(n1C(C)C)[C@]1(C(=O)Nc3cc(Cl)ccc31)N(c1cc(Cl)ccc1C)C2=O` [Example R-150, (R)-6-chloro-5′-(5-chloro-2-methylphenyl)-2′-(6-(difluoromethoxy)-4-methoxypyridin-3-yl)-3′-isopropyl-3′H-spiro[dihydroindole-3,4′-pyrrolo[3,4-d]imidazole]-2,6′(5′H)-dione], the figures for the IC50 (against MDM2; in experiment [1]) were 0.377 µM and 5700 nM, respectively.
As to `COc1ncc(-c2nc3c(n2C(C)C)C2(C(=O)Nc4cc(Cl)ccc42)N(c2cc(F)cc(Cl)c2)C3=O)c(OC)n1` (stereo not shown) [Example 45, 6-chloro-5′-(3-chloro-5-fluorophenyl)-2′-(2,4-dimethoxypyrimidin-5-yl)-3′-isopropyl-3′H-spiro[dihydroindole-3,4′-pyrrolo[3,4-d]imidazole]-2,6′(5′H)-dione], the “inhibitory effect on MDM2 compared with positive control compound HDM201” value against MDM2 is listed as “better”. Also, the “inhibitory effect on human osteosarcoma cell line SJSA-1 compared with positive control compound HDM201” value in experiment [1] is given as “better”.
On to `COc1nc(OC(C)C)ncc1-c1nc2c(n1C(C)C)[C@@]1(C(=O)Nc3cc(Cl)ccc31)N(c1cccc(Cl)c1)C2=O` [Example S-124, (S)-6-chloro-5′-(3-chlorophenyl)-2′-(2-isopropoxy-4-methoxypyrimidin-5-yl)-3′-isopropyl-3′H-spiro[dihydroindole-3,4′-pyrrolo[3,4-d]imidazole]-2,6′(5′H)-dione], for which the results for the IC50 (against MDM2; in experiment [1]) were 0.00291 µM and 129 nM, respectively.
On the same counts, the results for `COc1cc(OC(F)F)ncc1-c1nc2c(n1C(C)C)[C@@]1(C(=O)Nc3cc(Cl)ccc31)N(c1cc(Cl)ccc1C)C2=O` [Example S-150, (S)-6-chloro-5′-(5-chloro-2-methylphenyl)-2′-(6-(difluoromethoxy)-4-methoxypyridin-3-yl)-3′-isopropyl-3′H-spiro[dihydroindole-3,4′-pyrrolo[3,4-d]imidazole]-2,6′(5′H)-dione] are 0.00193 µM and 80.5 nM.
As to `COc1cc(C2CC2)cc(OC)c1-c1nc2c(n1C(C)C)[C@@]1(C(=O)Nc3cc(Cl)ccc31)N(c1cc(Cl)ccc1C)C2=O` [Example S-108, (S)-6-chloro-5′-(5-chloro-2-methylphenyl)-2′-(4-cyclopropyl-2,6-dimethoxyphenyl)-3′-isopropyl-3′H-spiro[dihydroindole-3,4′-pyrrolo[3,4-d]imidazole]-2,6′(5′H)-dione], the IC50 against MDM2 was found to be 0.00887 µM; in experiment [1], 28.8 nM.
On the same counts, the results for `COc1cc(F)ccc1-c1nc2c(n1C(C)C)[C@]1(C(=O)Nc3cc(Cl)ccc31)N(c1cc(Cl)ccc1C)C2=O` [Example R-4, (R)-6-chloro-5′-(5-chloro-2-methylphenyl)-2′-(4-fluoro-2-methoxyphenyl)-3′-isopropyl-3′H-spiro[dihydroindole-3,4′-pyrrolo[3,4-d]imidazole]-2,6′(5′H)-dione] are 0.132 µM and 2190 nM.
The corresponding values for `COc1nc(OCC(F)(F)F)ncc1-c1nc2c(n1C(C)C)[C@@]1(C(=O)Nc3cc(Cl)ccc31)N(c1cc(Cl)ccc1C)C2=O` [Example S-141, (S)-6-chloro-5′-(5-chloro-2-methylphenyl)-3′-isopropyl-2′-(4-methoxy-2-(2,2,2-trifluoroethoxy)pyrimidin-5-yl)-3′H-spiro[dihydroindole-3,4′-pyrrolo[3,4-d]imidazole]-2,6′(5′H)-dione] are 0.00342 µM and 73.6 nM.
The corresponding values for `COc1nc(N2CCC2)ncc1-c1nc2c(n1C(C)C)[C@@]1(C(=O)Nc3cc(Cl)ccc31)N(c1cc(Cl)ccc1C)C2=O` [Example S-117, (S)-2′-(2-(12zetidine-1-yl)-4-methoxypyrimidin-5-yl)-6-chloro-5′-(5-chloro-2-methylphenyl)-3′-isopropyl-3′H-spiro[dihydroindole-3,4′-pyrrolo[3,4-d]imidazole]-2,6′(5′H)-dione] are 0.00215 µM and 14.4 nM.
On to `COc1cc(OCCF)ncc1-c1nc2c(n1C(C)C)[C@]1(C(=O)Nc3cc(Cl)ccc31)N(c1cccc(Cl)c1)C2=O` [Example R-177, (R)-6-chloro-5′-(3-chlorophenyl)-2′-(6-(2-fluoroethoxy)-4-methoxypyridin-3-yl)-3′-isopropyl-3′H-spiro[dihydroindole-3,4′-pyrrolo[3,4-d]imidazole]-2,6′(5′H)-dione], for which the IC50 was 0.109 µM on MDM2 and 4250 nM in experiment [1].
As to `COc1cc(OC)c(-c2nc3c(n2C(C)C)C2(C(=O)Nc4cc(Cl)ccc42)N(c2cccc(Cl)c2)C3=O)cn1` (stereo not shown) [Example 115, 6-chloro-5′-(3-chlorophenyl)-2′-(4,6-dimethoxypyridin-3-yl)-3′-isopropyl-3′H-spiro[dihydroindole-3,4′-pyrrolo[3,4-d]imidazole]-2,6′(5′H)-dione], the “inhibitory effect on MDM2 compared with positive control compound HDM201” value at MDM2 is reported as “better”. Moreover, in experiment [1], the “inhibitory effect on human osteosarcoma cell line SJSA-1 compared with positive control compound HDM201” value is given as “better”.
As to `COc1cc(OCCF)ncc1-c1nc2c(n1C(C)C)[C@@]1(C(=O)Nc3cc(Cl)ccc31)N(c1cccc(Cl)c1)C2=O` [Example S-177, (S)-6-chloro-5′-(3-chlorophenyl)-2′-(6-(2-fluoroethoxy)-4-methoxypyridin-3-yl)-3′-isopropyl-3′H-spiro[dihydroindole-3,4′-pyrrolo[3,4-d]imidazole]-2,6′(5′H)-dione], the IC50 was found to be 0.00237 µM against MDM2 and 421 nM in experiment [1].
Turning to `COc1cc(N)ccc1-c1nc2c(n1C(C)C)C1(C(=O)Nc3cc(Cl)ccc31)N(c1cc(Cl)ccc1C)C2=O` (stereo not shown) [Example 49, 2′-(4-amino-2-methoxyphenyl)-6-chloro-5′-(5-chloro-2-methylphenyl)-3′-isopropyl-3′H-spiro[dihydroindole-3,4′-pyrrolo[3,4-d]imidazole]-2,6′(5′H)-dione], at MDM2, the “inhibitory effect on MDM2 compared with positive control compound HDM201” value was “better”. Also, in experiment [1], the “inhibitory effect on human osteosarcoma cell line SJSA-1 compared with positive control compound HDM201” value is given as “better”.
Turning to `COc1cc(C2CC2)ncc1-c1nc2c(n1C(C)C)[C@]1(C(=O)Nc3cc(Cl)ccc31)N(c1cc(Cl)cnc1C)C2=O` [Example R-143, (R)-6-chloro-5′-(5-chloro-2-methylpyridin-3-yl)-2′-(6-cyclopropyl-4-methoxypyridin-3-yl)-3′-isopropyl-3′H-spiro[dihydroindole-3,4′-pyrrolo[3,4-d]imidazole]-2,6′(5′H)-dione], the IC50 came out at 0.214 µM against MDM2 and 6220 nM in experiment [1].
On the same counts, the results for `COc1nc(N(C)C)ncc1-c1nc2c(n1C(C)C)[C@@]1(C(=O)Nc3cc(Cl)ccc31)N(c1cc(Cl)ccc1C)C2=O` [Example S-82, (S)-6-chloro-5′-(5-chloro-2-methylphenyl)-2′-(2-(dimethylamino)-4-methoxypyrimidin-5-yl)-3′-isopropyl-3′H-spiro[dihydroindole-3,4′-pyrrolo[3,4-d]imidazole]-2,6′(5′H)-dione] are 0.00116 µM and 7.43 nM.
